Here are results for 8 compounds from patent US11406648B2, “C17-heteroaryl derivatives of oleanolic acid and methods of use thereof” (REATA PHARMACEUTICALS, INC., priority 2012, dated 2022).

The experiment relates to RAW264.7 mouse macrophages. In words: Suppression of IFNγ-induced NO production (Nitric Oxide Production and Cell Viability Assay). Conditions: IFNγ-induced NO production, Griess reagent, normalized to cell viability, 2 h pre-treatment, IFNγ 24 h. It counts as cell-based. The method, then: Assay results for the suppression of IFNγ-induced NO production are shown for several of the compounds of the present invention in Table 1 below. […] Details regarding this assay are provided in the Examples section below. Nitric Oxide Production and Cell Viability Assay. RAW264.7 mouse macrophages were plated in 96-well plates at 30,000 cells/well in triplicate in RPMI1640+0.5% FBS and incubated at 37° C. with 5% CO2. On the next day, cells were pre-treated with DMSO or drug (0-200 nM dose range) for 2 hours, and then treated with recombinant mouse IFNγ (R&D Systems) for 24 hours. Nitric Oxide concentration in media was determined using the Griess reagent system (Promega). Cell viability was determined using WST-1 reagent (Roche). IC50 values were determined based on the suppression of IFNγ induced Nitric Oxide production normalized to cell viability.
Take `Cc1nnc(C[C@]23CCC(C)(C)C[C@H]2[C@H]2C(=O)C=C4[C@@]5(C)C=C(C#N)C(=O)C(C)(C)[C@@H]5CC[C@@]4(C)[C@]2(C)CC3)o1` [TX63593]: the IC50 was found to be 1.7 nM.
The result for `CCCc1nnc([C@]23CCC(C)(C)C[C@H]2[C@H]2C(=O)C=C4[C@@]5(C)C=C(C#N)C(=O)C(C)(C)[C@@H]5CC[C@@]4(C)[C@]2(C)CC3)o1` [TX63475] reads 5.7 nM; that for `Cc1noc([C@]23CCC(C)(C)C[C@H]2[C@H]2C(=O)C=C4[C@@]5(C)C=C(C#N)C(=O)C(C)(C)[C@@H]5CC[C@@]4(C)[C@]2(C)CC3)n1` [TX63501], 1 nM.
The result for `CC1(C)CC[C@]2(c3nnco3)CC[C@]3(C)[C@H](C(=O)C=C4[C@@]5(C)C=C(C#N)C(=O)C(C)(C)[C@@H]5CC[C@]43C)[C@@H]2C1` [TX63479] reads 1.1 nM.
The result for `Cc1nnc([C@]23CCC(C)(C)C[C@H]2[C@H]2C(=O)C=C4[C@@]5(C)C=C(C#N)C(=O)C(C)(C)[C@@H]5CC[C@@]4(C)[C@]2(C)CC3)o1` [TX63384] reads 2 nM; that for `CC(C)c1nnc([C@]23CCC(C)(C)C[C@H]2[C@H]2C(=O)C=C4[C@@]5(C)C=C(C#N)C(=O)C(C)(C)[C@@H]5CC[C@@]4(C)[C@]2(C)CC3)o1` [TX63476], 5.4 nM; that for `CC1(C)CC[C@]2(c3nnc(C4CC4)o3)CC[C@]3(C)[C@H](C(=O)C=C4[C@@]5(C)C=C(C#N)C(=O)C(C)(C)[C@@H]5CC[C@]43C)[C@@H]2C1` [TX63477], 3.3 nM.
As to `COCc1nnc([C@]23CCC(C)(C)C[C@H]2[C@H]2C(=O)C=C4[C@@]5(C)C=C(C#N)C(=O)C(C)(C)[C@@H]5CC[C@@]4(C)[C@]2(C)CC3)o1` [TX63478], the IC50 came to 1.8 nM.
